{
  "source": "patent US10201507B2",
  "about": "“Modulators of intracellular chloride concentration for treating fragile X syndrome” (NEUROCHLORE, priority 2012, dated 2019)",
  "key": {"[1]": {"test_system": "CA3 pyramidal cells", "test": "Single GABAA channel recordings of driving force of GABA (DFGABA) in hippocampal slices, drug applied to slice", "assay_type": "cell-based, mouse", "description": "Mice lacking Fmr1 (referred to as Fmr1^−/−) were bred in our animal facility. […] For all experiments, Fmr1^−/− mice were used with wild-type littermates as a control group. The offspring were used for experiments at E18, P0, P2, P4, P7, P9, P15 and P30. Experiments were carried out on offspring of either sex and in a blind manner at E18 and P0.\nExperiments were performed on fetuses and neonatal wild type and Fragile X mice from the embryonic day […] to the postnatal day P38 (term is E21). All of the research was performed in compliance with the national guidelines on human care and use of laboratory animals and approved by INSERM.\nHippocampal slices (300-500 μm thick) were prepared using a Microm tissue slicer (International GmbH, Germany) as described previously (Tyzio et al., 2006, 2008). Slices were kept in oxygenated (95% O2/5% CO2) artificial cerebrospinal fluid (ACSF) of the following composition (in mM): NaCl 126, KCl 3.5, CaCl2 2.0, MgCl2 1.3, NaHCO3 25, NaH2PO4 1.2 and glucose 11 (pH 7.4) at room temperature (20-22° C.) at least 1 hour before use.\nFor recordings, slices were placed into a conventional fully submerged chamber superfused with ACSF at a rate of 2-3 ml/min at room temperature. Patch clamp recordings from visually identified CA3 pyramidal cells in cell-attached configuration were performed using EPC-10 amplifier (HEKA Elektronik Dr. Schulze GmbH, Lambrecht/Pfalz, Germany). Patch pipette solution for recordings of single GABAA channels contained (in mM): NaCl 120, KCl 5, TEA-Cl 20, 4-aminopyridine 5, CaCl2 0.1, MgCl2 10, glucose 10, Hepes-NaOH 10 buffered to pH 7.2-7.3 and GABA 2 μM. Analysis of currents through single channels and current-voltage relationships were performed using Clampfit 9.2 (Axon Instruments, Union City, Calif.). Recordings were digitized (10 kHz) online with Digidata-1200 interface card (Axon Instruments, Union City, Calif.) and analyzed offline with Axon package, MiniAnalysis (S (Synaptsoft, Decatur, Ga.), and Origin (Microcal Software, Northampton, Mass.). […]"}, "[2]": {"test_system": "FXS mice", "test": "Isolation-induced ultrasonic vocalizations (USVs) at P8 after maternal pretreatment", "assay_type": "in vivo, mouse", "source_text": "To induce ultrasonic vocalizations, mouse pups were isolated individually from their mother on postnatal day 8, and were placed into an isolation box (23×28×18 cm) located inside a sound attenuating isolation cubicle (54×57×41 cm; Coulbourn Instruments, Allentown, Pa., USA), and evaluated for ultrasonic vocalizations during a three minute test. An ultrasound microphone (Avisoft UltraSoundGate Condenser microphone capsule […] Bioacoustics, Berlin, Germany), placed in the roof of the box, was sensitive to frequencies of 10 to 250 kHz. Vocalizations were recorded using the Avisoft Recorder software (version 4.2) with a sampling rate of 250 kHz in 16 bit format. For acoustical analysis, recordings were transferred to SASLab Pro (version 5.2; Avisoft Bioacoustics) and a fast Fourier transformation was conducted (512 FFT-length, 100% frame, Hamming window and 75% time window overlap). The accuracy of call detection was verified manually by an educated user. A Pearson correlation coefficient was computed to assess the relationship between Automatic and Manual analysis. There was 0.99 correlations between the two variables. A t postnatal day 8, waveform patterns of calls were examined in 45 sonograms from 4 groups of mice (WT, FXS, WT pretreated, FXS pretreated). Each call was identified as one of 10 distinct categories, and only the sonograms where mice emitted at least 50 calls were used for this evaluation. To test whether depolarizing actions of GABA were associated with neuronal excitation, the effect of the GABAA receptor agonist isoguvacine was tested. […] To test whether maternal treatment with bumetanide before delivery switches the action of GABA from excitatory to inhibitory in offsprings at P15, pregnant females were treated orally 1 day before delivery with bumetanide (2-2.5 mg/kg in drinking water) and juvenile offspring neurons recorded at P15. […] Therefore, excitatory actions of GABA during delivery produce long term deleterious effects on electrophysiological parameters of FXS juvenile neurons. In FXS mice, GABAergic inputs are excitatory and contribute to hyperexcitability of the network. Bumetanide decreases [Cl^-]i and consequently reduces contribution of excitatory GABAergic inputs in the overall network activity. Isolation and Ultrasonic vocalizations were induced in mice to determine behavioral effect of Bumetanide in a model of FXS. An increased probability of emitting downward and chevron calls in FXS pups than age matched WT (P8). This was rescued by maternal bumetanide pretreatment (FIG. 4, table 3). Therefore, elevated [Cl^-]i levels during delivery are involved in the pathogenesis of Fragile X syndrome."}},
  "note": "Entries after “also recorded” stand apart in the source; their conditions may differ.",
  "data": [
    {"smiles": "CCCCNc1cc(C(=O)O)cc(S(N)(=O)=O)c1Oc1ccccc1", "note": "[bumetanide]", "values": [
      {"measurement": "Effect on DFGABA (in words)", "setting": "[1]; FXS neurons at P0 (birth), oxytocin 1 μM", "value": "shift it to hyperpolarization; also recorded: fully blocked the depolarising DFGABA"},
      {"measurement": "Effect on DFGABA (in words)", "setting": "[1]; wild type pyramidal cells at P0", "value": "increases hyperpolarization"},
      {"measurement": "Chevron calls, isolation-induced USVs", "setting": "[2]; P8 FXS mice", "value": "0.6 ± 0.1 (n = 13)"},
      {"measurement": "Downward calls, isolation-induced USVs", "setting": "[2]; P8 FXS mice", "value": "10.2 ± 1.4 (n = 13)"},
      {"measurement": "Increased probability of downward and chevron calls (in words)", "setting": "[2]; P8 FXS pups", "value": "rescued"},
      {"measurement": "Chevron calls, isolation-induced USVs", "setting": "[2]; P8 WT mice", "value": "0.5 ± 0.3 (n = 9)"},
      {"measurement": "Downward calls, isolation-induced USVs", "setting": "[2]; P8 WT mice", "value": "13.5 ± 2.8 (n = 9)"}
    ]}
  ]
}
